From US10034897B2, “Methods and compositions for muscular and neuromuscular diseases” (priority 2012, dated 2018) come the findings set out here.

Series [1] is described as follows: Nitric oxide gas bubbled through carrier, change in weight. To be noted: NO gas bubbled 40 hr, 25 °C. It counts as physicochemical. The procedure:
This example illustrates one technique for preparing a composition in accordance with one embodiment of the invention. An accurate amount of a carrier (HNC 167-62) (see below) was introduced into a system. The carrier weight used in these experiments was approximately 250 g and the vessel size was 500 ml. The vessel was equipped with a mechanical stirrer, gas inlet, and gas outlet and was previously purged with argon for about an hour. The temperature of the carrier was kept at about 25-30° C. NO gas regulated at 5 psi (1 psi is about 6,900 Pa) and was then introduced at a controlled rate of about 1 bubble/s with continuous stirring. […] After 6 hours, the weight of the carrier had increased by 0.15%, by 12 hours by 0.25%, and by 24 hours by 0.56%. These increases in weight were believed to be significant considering the relative small molecular weight of NO versus the carrier. […] The carrier also can solidify upon cooling if the carrier is initially a solid at lower temperature.
Each carrier was taken in a 500 mL three necked flask equipped with a mechanical stirrer, gas inlet and a gas outlet. The system was purged with argon for one hour at room temperature (25° C.). Then nitric oxide gas was bubbled into the system. Then, nitric oxide gas was bubbled through carrier for stipulated amount of time. The changes in weight and color were noted. […]

Series [2] relates to humans. As to the kind of experiment: Laser Doppler capillary circulation in five human subjects, Example 7. It counts as in vivo. To be noted: positive control formulation containing 0.1% methyl nicotinate. The text has this: This example illustrates delivery of nitric oxide formulations to five human subjects, using procedures and formulations similar to those discussed in Example 5. Each person served as their own control for the testing. A Moor Instruments Laser Doppler was used to determine circulation. […] The formulations used produce positive, almost immediate results when applied to the skin which, in these studies, was manifested by vasodilatation of the cutaneous vascular system.
For each subject, the following creams were applied: a negative control formulation (containing no NO), 0.010 gram of a 10,000 ppm NO formulation, 0.020 gram of a 10,000 ppm NO formulation, and a positive control formulation containing 0.1% methyl nicotinate. The formulations were prepared using procedures similar to those discussed in Example 1.

The subject of series [3] is humans. As to the kind of experiment: Laser Doppler capillary blood flow, closed Hilltop chamber on forearm, Example 5. Format: in vivo, human. To be noted: applied to the skin at 1/10% in alcohol. The source says:
The formulation used in these studies contained nitric oxide dispersed in a lipid matrix. […] Nitric oxide is a very rapid acting molecule, and these studies used a system that employed laser Doppler with a covered chamber. The formulation was placed into the chamber and then attached to the skin by an adhesive layer on the covering. This provided a stable measuring device as determined by multiple normal evaluations of the capillary blood flow without treatment of nitric oxide.
A known positive control, methyl nicotinate, was applied to the skin at a concentration of 1/10% in alcohol. […] The vascular dynamics are such that when the blood vessels dilate physical parameters follow Bernoulli's law. This states that as one increases the diameter of a tube containing a liquid to flow will increase but the pressure and the speed of the liquid will decrease. The laser Doppler device accurately measured these parameters.
The test product was labeled as 10,000 ppm NO (nitric oxide). The study participants had 100 mg of the test product applied in a closed Hilltop chamber on the forearm. […]
A Moor Instruments DRT4 Laser Doppler Blood Flow Monitor (Devon, England) was used in these studies. The laser Doppler technique measured blood flow in the microcapillaries of the skin that are close to the skin surface and the blood flow in underlying arterioles and venules that help to regulate skin temperature. […]

On to `OCCCO` [1,3-Propanediol, 1,3-propanediol], for which, in series [1], the “% Wt. gain” value turned out to be 0.09% and the “Wt Gain” value is recorded as 0.16 g.

Consider `COC(=O)c1cccnc1` [methyl nicotinate], for which the vasodilatation entry in the series on humans [2] is listed as “vasodilatation was observed”. In the series on humans [3], the “laser Doppler response of positive control” value was “rapid response typical of the vasodilator”.
